{"source": "patent US9744250B2", "about": "“Chemical model of a neurodegenerative disease, method for preparation and uses of same” (priority 2012, dated 2017)", "key": {"SH-SY5Y neuronal cells": {"tested_on": "SH-SY5Y neuronal cells", "assay": "Cell viability test in MTT", "type": "cell-based, human", "procedure": "Cells from SH-SY5Y human neuroblastomas were cultured in a DMEM medium containing 4.5 g·L^−1 glucose, 10% fetal calf serum, and 1% penicillin/streptomycin, and placed in an incubator at 37° C. with 7% CO2.\nIn the various experiments, the SH-SY5Y cells were seeded at a density of 4×10^4 cells/mL. 24 h after seeding, the cells were exposed to the various test compounds at 37° C. for 24 h, 48 h, 72 h, or 96 h.\nThis test consisted of rapidly measuring cellular metabolic activity in the presence of the study compound at different concentrations, in order to conduct a dose-response study. To do this, the tetrazolium salt MTT, 3-(4,5-dimethylthiazol-2-yl)-2,5-diphenyltetrazolium bromide (Amoroso et al., Biochim Biophys Acta, 1999, 1452(2):151-60), was placed in contact with the cells. MTT is reduced to formazan by living cells that have the capacity to metabolize it, unlike dead cells. To conduct this test, SH-SY5Y neuronal cells in 48-well plates were incubated for 24 h, 48 h, 72 h, and 96 h, with furosemide pyridinium at concentrations ranging from 0 to 1000 μM. Then MTT (0.5 mg/ml final) was added to each well and incubated at 37° C. for 2 h. At the end of incubation, after carefully removing the medium, DMSO was added (200 μL) to dissolve the cell membranes and the formazan crystals formed by the living cells. The toxicity of the molecule was evaluated by determining the amount of reduced MTT, doing so by measuring the absorbance at 550 nm as this value is proportional to the number of living cells. The results were expressed as a function of the values obtained for cells treated only with the solvent used to dissolve the compound of interest. To compare the toxicity of furosemide pyridinium to that of MPP+, the cells were incubated in the presence of MPP+ (0 to 1000 μM) for 6 h. The culture medium was replaced and the cells were incubated at 37° C. for an additional 24 h (no MPP+). Cell survival was measured at the end of these 24 hours of incubation as described above. When evaluating the effect of different concentrations of α-tocopherol (vitamin E), a membrane antioxidant, the cells were pretreated for 24 h with this antioxidant before being exposed to furosemide pyridinium at a concentration of 0.5 mM under the same experimental conditions as above."}, "caspase-3": {"tested_on": "caspase-3", "assay": "Caspase-3 activity (Ac-DEVD-AFC cleavage) in SH-SY5Y cells", "type": "cell-based, human", "conditions": "1 mM, 96 h", "procedure": "(§1) Measurement of the activities of the various caspases is based on the ability of the caspases to cleave specific fluorescent substrates: Ac-DEVD-AFC for caspase-3, Ac-IETD-AFC for caspase-8, or Ac-LEHD-AFC for caspase-9. SH-SY5Y neuronal cells were incubated in 48-well plates with either furosemide pyridinium (1 mM) for 96 h or with MPP+ (1 mM) for 6 h, then 24 h of incubation with no MPP+. After incubation, the cells were trypsinized, then rinsed with PBS and counted, then harvested in 100 μl of buffer containing 30 mM HEPES, 0.3 mM EDTA, 100 mM NaCl, 0.15% Triton X-100, and 10 mM DTT. The cell extract was then incubated for 1 hour at 37° C. with the specific substrate (100 μM) in a 96-well plate. Fluorescence was measured at λex400 nm and λem505 nm in a fluorescence detection plate reader (TECAN Infinite M1000) (Yue et al., supra). The results were expressed as percentages relative to the measured activity of cells cultured under the same conditions and not subjected to any treatment."}, "caspase-8": {"tested_on": "caspase-8", "assay": "Caspase-8 activity (Ac-IETD-AFC cleavage) in SH-SY5Y cells", "type": "cell-based, human", "conditions": "1 mM, 96 h", "procedure": "as §1"}, "complex I": {"tested_on": "complex I", "assay": "Complex I activity of mitochondria from striata of exposed mice", "type": "in vivo, mouse", "conditions": "20 mg/kg/day oral 7 days, 30 days after end of exposure", "procedure": "The kinetics of the oxidation reaction of NADH into NAD+ at 340 nm at 37° C. were continuously monitored by spectrophotometry using a JASCO V-530 spectrophotometer or a TECAN 1000M Infinite plate reader, set to a wavelength of 340 nm for 3 min. The amount of mitochondria extract to obtain the maximum activity introduced into the reaction volume was 100 μg with the spectrophotometer and 10 μg with the reader. Each manipulation must be done at substrate saturation, which is an NADH concentration of 160 μM. Mitochondria previously divided into multiple aliquots were frozen, then quickly thawed a few minutes before use. In a first step, the mitochondria extract was introduced into the hypotonic buffer (50 mM KH2PO4 and 10 mM MgCl2, pH=7.2 at 37° C.) for 2 minutes to break open the mitochondrial membranes and access the respiratory chain (Chretien et al., Biochem Biophys Res Commun, 2003, 301(1):222-4). […] The slope of the kinetics was then measured. […] The inhibition percentage was then calculated. […]\nFor each mouse sacrificed, cortex and striatum samples had been previously collected and processed to extract the mitochondria. The activity of the mitochondrial respiratory chain and of complex I were determined as described in Part B above, in the “Materials and Methods” subsection (without addition of furosemide pyridinium or an analog to the medium)."}, "[1]": {"tested_on": "α-synuclein phosphorylated at serine 129", "assay": "Immunohistochemistry of Ser129-phosphorylated alpha-synuclein in exposed mice", "type": "in vivo, mouse", "conditions": "20 mg/kg/day oral 7 days, 30 days after end of exposure", "procedure": "Swiss mice were divided into two groups of five animals (experimental and control). The experiments were performed independently two times. The mice of the experimental group were exposed to furosemide pyridinium for 7 days at a daily dose of 20 mg/kg. The furosemide pyridinium was administered orally in the drinking water. The mice were sacrificed 30 days after the end of the furosemide pyridinium treatment.\nFor this, the mice were anesthetized with pentobarbital (50 mg/Kg), then an intracardiac infusion of NaCl (0.9%) was administered, followed by fixation by an infusion of 4% paraformaldehyde in 0.1M phosphate buffer, pH 7.2. The brain was removed, placed in NaCl (0.9%) at 4° C., and frozen in Tissue Tek immersed in a cold isopentane bath. Coronal sections of eight microns were obtained using a cryostat and were processed for immunohistochemistry (labeling the tyrosine hydroxylase and the Ser129-phosphorylated alpha-synuclein)."}}, "note": "pEC50: −log10 of the molar value.", "data": [{"smiles": "NS(=O)(=O)c1cc(C(=O)[O-])c(-[n+]2cccc(O)c2)cc1Cl", "note": "[furosemide pyridinium, 4-chloro-2-(3-hydroxypyridinium-1-yl)-5-sulfamoylbenzoate]", "values": [{"measurement": "decrease in cell survival", "setting": "SH-SY5Y neuronal cells; 0.5 mM, 96 h", "result": "about 20%"}, {"measurement": "effect on cell survival", "setting": "SH-SY5Y neuronal cells; 24 h of incubation, even at 1 mM", "result": "no significant effect"}, {"measurement": "pEC50", "setting": "SH-SY5Y neuronal cells; Homo sapiens, 96 h of incubation, estimated, read-out: EC50 (cell survival)", "result": 3.01}, {"measurement": "activity of caspase-3 compared to untreated cells", "setting": "caspase-3", "result": 179, "unit": "%"}, {"measurement": "change in caspase-8 activity", "setting": "caspase-8", "result": "did not induce significant changes"}, {"measurement": "decrease in activity of complex I of striatal mitochondria vs control animals", "setting": "complex I", "result": 49, "unit": "%"}, {"measurement": "α-synuclein phosphorylated at serine 129 in the cortexes", "setting": "[1]; cortex", "result": "no increase"}, {"measurement": "α-synuclein phosphorylated at serine 129 in the striata", "setting": "[1]; striatum", "result": "sharp increase"}]}]}
